Experimental data published in patent US10538497B2, “Compounds as indoleamine 2,3-dioxygenase inhibitors” (Merck Sharp & Dohme Corp., priority 2015, dated 2020).

Tests used:
IDO1 [1] = target: T1, IDO1 (Homo sapiens (Human), UniProt P14902); test: IDO1 Enzyme Assay; conditions: read-out: IDO1 Enzyme Assay, IC50; HIS-tagged recombinant IDO1, 40 nM
IDO1 [2] = target: T1, IDO1; test: IDO1 Human Whole Blood Assay; format: cell-based; conditions: LPS and IFNγ 100 ng/mL, kynurenine by LC/MS/MS
IDO1 [3] = target: T1, IDO1; test: IDO1 Cellular Assay in Frozen HEK293 Cells Transiently Transfected with Human IDO1; format: cell-based; conditions: HEK293 cells transiently transfected with human IDO1; read-out: IDO1 HEK293 Cell Assay, IC50
IDO1 [4] = target: T1, IDO1; test: IDO1 Cellular Assay in Hela Cells Stimulated with IFNγ; format: cell-based; conditions: Hela cells stimulated with IFNγ 100 ng/mL; read-out: IDO1 HELA Cell Assay, IC50

T1 sequence (P14902 whole entry): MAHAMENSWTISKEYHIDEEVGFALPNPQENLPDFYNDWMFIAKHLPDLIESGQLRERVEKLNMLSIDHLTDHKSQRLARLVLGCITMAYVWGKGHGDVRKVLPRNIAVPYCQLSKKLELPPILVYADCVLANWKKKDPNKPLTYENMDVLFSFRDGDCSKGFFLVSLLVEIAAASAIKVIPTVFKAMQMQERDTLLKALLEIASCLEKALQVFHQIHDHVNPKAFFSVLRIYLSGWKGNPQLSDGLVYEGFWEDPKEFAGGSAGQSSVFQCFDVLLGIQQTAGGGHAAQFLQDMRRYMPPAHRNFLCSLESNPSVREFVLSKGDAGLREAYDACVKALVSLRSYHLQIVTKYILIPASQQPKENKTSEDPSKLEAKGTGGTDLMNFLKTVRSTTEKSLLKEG

Compound	IC50 (IDO1 [1]) [nM]	IC50 (IDO1 [2]) [nM]	IC50 (IDO1 [3]) [nM]	IC50 (IDO1 [4]) [nM]
N#Cc1cc(N/C(=N\O)c2nonc2SCCNC(=O)CO)ccc1F [Example 182, N-[2-({4-[N-(3-cyano-4-fluorophenyl)-N′-hydroxycarbamimidoyl]-1,2,5-oxadiazol-3-yl}sulfanyl)ethyl]-2-hydroxyacetamide]	135	526	186	321
CNC(=O)CSc1nonc1/C(=N/O)Nc1ccc(F)c(C#N)c1 [Example 185, 2-({4-[N-(3-cyano-4-fluorophenyl)-N′-hydroxycarbamimidoyl]-1,2,5-oxadiazol-3-yl}sulfanyl)-N-methylacetamide]	88	395	65.4	166
O/N=C(\Nc1ccc(F)c(Br)c1)c1nonc1SCc1nnc[nH]1 [Example 191, N-(3-bromo-4-fluorophenyl)-N′-hydroxy-4-[(4H-1,2,4-triazol-3-ylmethyl)sulfanyl]-1,2,5-oxadiazole-3-carboximidamide]	43.7	903	10	22.6
